Laboratory results as given in patent US9321770B2, “Crystals of pyrroloquinolinequinone sodium salts” (MITSUBISHI GAS CHEMICAL COMPANY, INC., priority 2009, dated 2016).
Where a name gives a salt, the structure may show the parent alone.

Assay: Thermal analysis: thermogravimetry (TG) and differential thermal analysis (DSC)
Assay type: physicochemical
Conditions: under air flow; for thermal stability of the solids (thermal analysis): temperature increased at 10° C./minute
Method: The obtained solids were subjected to thermogravimetry (TG) and differential thermal analysis (DSC) using Thermo plus EVO TG8120 manufactured by Rigaku Corporation. The temperature was increased under air flow at a rate of 10° C./minute.

Row | thermal stability of the solids (thermal analysis) (trisodium salt) | temperature from which reduction in the weight was observed (10° C./minute) | thermal stability of the solids (thermal analysis) (disodium salt) | temperature up to which there was no change (except evaporation of water at about 100° C.) (10° C./minute) [°C] | SMILES
1 | very high thermal stability |  |  |  | O=C(O)c1cc(C(=O)O)c2c(n1)C(=O)C(=O)c1cc(C(=O)O)[nH]c1-2 [Example 4, pyrroloquinoline quinone trisodium salt]
2 |  | about 30 °C | unstable |  | O=C(O)c1cc(C(=O)O)c2c(n1)C(=O)C(=O)c1cc(C(=O)O)[nH]c1-2 [Comparative Example 1, PQQ disodium salt]
3 |  |  | low thermal stability |  | O=C(O)c1cc(C(=O)O)c2c(n1)C(=O)C(=O)c1cc(C(=O)O)[nH]c1-2 [Comparative Example 2, PQQ disodium salt]
4 |  |  | very stable | 270 | O=C(O)c1cc(C(=O)O)c2c(n1)C(=O)C(=O)c1cc(C(=O)O)[nH]c1-2 [Example 2, pyrroloquinoline quinone disodium salt]
